Columns and labels:
Caco-2 cell line = assay: Cytotoxicity MTS assay, Caco-2 cell line; assay type: cell-based; settings: for OD490 Mean / OD490 Well 1 / OD490 Well 2 / OD490 Well 3: Caco-2 cell line
Experimental: (§1) The positive compounds (IC50 < 100 μM) obtained from the primary Eg5 motor protein ATPase assay were tested for antiproliferative activity in vitro against Caco-2 cell line, Hela cell line, L929 cell line and T24 cell line by performing MTS assay. Cells were introduced into 96-well plates at a density of 1000 cells per well. After 24 h incubation, the cells were exposed with compounds at final concentrations ranging from 0.5 to 100 µM for 24 h. DMSO was used at a final concentration of 0.025% as blank control, monastrol was used as the positive control. Then 20 µL (CellTiter 96® AQueous One Solution Promega, Madison, WI, USA) reagent was added in each well. After 2 h at 37 °C in a 80% humidified, 5% CO2 atmosphere, the absorbance at 490 nm was recorded using a microplate reader (BIO-RAD iMark^TM). The results were obtained in three independent duplicate experiments. The primary data were shown in Supplementary Materials Tables S4–S7. The IC50 values for these compounds were calculated from a non-linear regression graph plotted between the percentage of cell viability and concentration with SPSS17.0 software.

T24 cell line = assay: Cytotoxicity MTS assay, T24 cell line; assay type: cell-based; settings: for OD490 Mean / OD490 Well 1 / OD490 Well 2 / OD490 Well 3: T24 cell line
Experimental: as §1

CCOC(=O)c1c(C2NC(=O)NC(C)=C2C(=O)Nc2ccccc2C)[nH]c(C(=O)OC)c1C (centres unmarked) [D2]
OD490 Mean (Caco-2 cell line; 0.5μM, first assay): 0.6270 | OD490 Well 1 (Caco-2 cell line; 0.5μM, first assay): 0.5887 | OD490 Well 2 (Caco-2 cell line; 0.5μM, first assay): 0.6362 | OD490 Well 3 (Caco-2 cell line; 0.5μM, first assay): 0.6562 | OD490 Mean (Caco-2 cell line; 0.5μM, second assay): 0.7070 | OD490 Well 1 (Caco-2 cell line; 0.5μM, second assay): 0.7084 | OD490 Well 2 (Caco-2 cell line; 0.5μM, second assay): 0.7002 | OD490 Well 3 (Caco-2 cell line; 0.5μM, second assay): 0.7123 | OD490 Mean (Caco-2 cell line; 0.5μM, third assay): 0.6851 | OD490 Well 1 (Caco-2 cell line; 0.5μM, third assay): 0.4885 | OD490 Well 2 (Caco-2 cell line; 0.5μM, third assay): 0.8254 | OD490 Well 3 (Caco-2 cell line; 0.5μM, third assay): 0.7414 | OD490 Mean (Caco-2 cell line; 1μM, first assay): 0.6349 | OD490 Well 1 (Caco-2 cell line; 1μM, first assay): 0.5288 | OD490 Well 2 (Caco-2 cell line; 1μM, first assay): 0.6946 | OD490 Well 3 (Caco-2 cell line; 1μM, first assay): 0.6813 | OD490 Mean (Caco-2 cell line; 1μM, second assay): 0.7459 | OD490 Well 1 (Caco-2 cell line; 1μM, second assay): 0.7813 | OD490 Well 2 (Caco-2 cell line; 1μM, second assay): 0.6848 | OD490 Well 3 (Caco-2 cell line; 1μM, second assay): 0.7716 | OD490 Mean (Caco-2 cell line; 1μM, third assay): 0.6746 | OD490 Well 1 (Caco-2 cell line; 1μM, third assay): 0.6245 | OD490 Well 2 (Caco-2 cell line; 1μM, third assay): 0.7010 | OD490 Well 3 (Caco-2 cell line; 1μM, third assay): 0.6982 | OD490 Mean (Caco-2 cell line; 10μM, first assay): 0.6116 | OD490 Well 1 (Caco-2 cell line; 10μM, first assay): 0.5314 | OD490 Well 2 (Caco-2 cell line; 10μM, first assay): 0.6140 | OD490 Well 3 (Caco-2 cell line; 10μM, first assay): 0.6893 | OD490 Mean (Caco-2 cell line; 10μM, second assay): 0.7407 | OD490 Well 1 (Caco-2 cell line; 10μM, second assay): 0.7116 | OD490 Well 2 (Caco-2 cell line; 10μM, second assay): 0.7395 | OD490 Well 3 (Caco-2 cell line; 10μM, second assay): 0.771 | OD490 Mean (Caco-2 cell line; 10μM, third assay): 0.6639 | OD490 Well 1 (Caco-2 cell line; 10μM, third assay): 0.7421 | OD490 Well 2 (Caco-2 cell line; 10μM, third assay): 0.5621 | OD490 Well 3 (Caco-2 cell line; 10μM, third assay): 0.6874 | OD490 Mean (Caco-2 cell line; 25μM, first assay): 0.6114 | OD490 Well 1 (Caco-2 cell line; 25μM, first assay): 0.5587 | OD490 Well 2 (Caco-2 cell line; 25μM, first assay): 0.6570 | OD490 Well 3 (Caco-2 cell line; 25μM, first assay): 0.6185 | OD490 Mean (Caco-2 cell line; 25μM, second assay): 0.6775 | OD490 Well 1 (Caco-2 cell line; 25μM, second assay): 0.5825 | OD490 Well 2 (Caco-2 cell line; 25μM, second assay): 0.7137 | OD490 Well 3 (Caco-2 cell line; 25μM, second assay): 0.7364 | OD490 Mean (Caco-2 cell line; 25μM, third assay): 0.6183 | OD490 Well 1 (Caco-2 cell line; 25μM, third assay): 0.6214 | OD490 Well 2 (Caco-2 cell line; 25μM, third assay): 0.6325 | OD490 Well 3 (Caco-2 cell line; 25μM, third assay): 0.6010 | OD490 Mean (Caco-2 cell line; 50μM, first assay): 0.5907 | OD490 Well 1 (Caco-2 cell line; 50μM, first assay): 0.6013 | OD490 Well 2 (Caco-2 cell line; 50μM, first assay): 0.6084 | OD490 Well 3 (Caco-2 cell line; 50μM, first assay): 0.5625 | OD490 Mean (Caco-2 cell line; 50μM, second assay): 0.5350 | OD490 Well 1 (Caco-2 cell line; 50μM, second assay): 0.5688 | OD490 Well 2 (Caco-2 cell line; 50μM, second assay): 0.5038 | OD490 Well 3 (Caco-2 cell line; 50μM, second assay): 0.5324 | OD490 Mean (Caco-2 cell line; 50μM, third assay): 0.5761 | OD490 Well 1 (Caco-2 cell line; 50μM, third assay): 0.6025 | OD490 Well 2 (Caco-2 cell line; 50μM, third assay): 0.5936 | OD490 Well 3 (Caco-2 cell line; 50μM, third assay): 0.5321 | OD490 Mean (Caco-2 cell line; 100μM, first assay): 0.4815 | OD490 Well 1 (Caco-2 cell line; 100μM, first assay): 0.4762 | OD490 Well 2 (Caco-2 cell line; 100μM, first assay): 0.4852 | OD490 Well 3 (Caco-2 cell line; 100μM, first assay): 0.4831 | OD490 Mean (Caco-2 cell line; 100μM, second assay): 0.5288 | OD490 Well 1 (Caco-2 cell line; 100μM, second assay): 0.5278 | OD490 Well 2 (Caco-2 cell line; 100μM, second assay): 0.5253 | OD490 Well 3 (Caco-2 cell line; 100μM, second assay): 0.5332 | OD490 Mean (Caco-2 cell line; 100μM, third assay): 0.5185 | OD490 Well 1 (Caco-2 cell line; 100μM, third assay): 0.5637 | OD490 Well 2 (Caco-2 cell line; 100μM, third assay): 0.4985 | OD490 Well 3 (Caco-2 cell line; 100μM, third assay): 0.4932 | IC50 (Caco-2 cell line; MTS assay, 24 h exposure): 116 µM | IC50 (T24 cell line; MTS assay, 24 h exposure): > 150 µM | OD490 Mean (T24 cell line; 0.5μM, first assay): 1.8524 | OD490 Well 1 (T24 cell line; 0.5μM, first assay): 1.8720 | OD490 Well 2 (T24 cell line; 0.5μM, first assay): 1.7367 | OD490 Well 3 (T24 cell line; 0.5μM, first assay): 1.9486 | OD490 Mean (T24 cell line; 0.5μM, second assay): 1.7337 | OD490 Well 1 (T24 cell line; 0.5μM, second assay): 1.7425 | OD490 Well 2 (T24 cell line; 0.5μM, second assay): 1.7320 | OD490 Well 3 (T24 cell line; 0.5μM, second assay): 1.7265 | OD490 Mean (T24 cell line; 1μM, first assay): 1.8992 | OD490 Well 1 (T24 cell line; 1μM, first assay): 1.8529 | OD490 Well 2 (T24 cell line; 1μM, first assay): 2.1141 | OD490 Well 3 (T24 cell line; 1μM, first assay): 1.7306 | OD490 Mean (T24 cell line; 1μM, second assay): 1.7313 | OD490 Well 1 (T24 cell line; 1μM, second assay): 1.6985 | OD490 Well 2 (T24 cell line; 1μM, second assay): 1.7321 | OD490 Well 3 (T24 cell line; 1μM, second assay): 1.7632 | OD490 Mean (T24 cell line; 10μM, first assay): 1.7422 | OD490 Well 1 (T24 cell line; 10μM, first assay): 1.5585 | OD490 Well 2 (T24 cell line; 10μM, first assay): 1.7096 | OD490 Well 3 (T24 cell line; 10μM, first assay): 1.9584 | OD490 Mean (T24 cell line; 10μM, second assay): 1.7005 | OD490 Well 1 (T24 cell line; 10μM, second assay): 1.6985 | OD490 Well 2 (T24 cell line; 10μM, second assay): 1.7032 | OD490 Well 3 (T24 cell line; 10μM, second assay): 1.6999 | OD490 Mean (T24 cell line; 25μM, first assay): 1.5770 | OD490 Well 1 (T24 cell line; 25μM, first assay): 1.7779 | OD490 Well 2 (T24 cell line; 25μM, first assay): 1.7471 | OD490 Well 3 (T24 cell line; 25μM, first assay): 1.2060 | OD490 Mean (T24 cell line; 25μM, second assay): 1.7524 | OD490 Well 1 (T24 cell line; 25μM, second assay): 1.7747 | OD490 Well 2 (T24 cell line; 25μM, second assay): 1.7842 | OD490 Well 3 (T24 cell line; 25μM, second assay): 1.6982 | OD490 Mean (T24 cell line; 50μM, first assay): 1.5326 | OD490 Well 1 (T24 cell line; 50μM, first assay): 1.7713 | OD490 Well 2 (T24 cell line; 50μM, first assay): 1.4256 | OD490 Well 3 (T24 cell line; 50μM, first assay): 1.4009 | OD490 Mean (T24 cell line; 50μM, second assay): 1.6946 | OD490 Well 1 (T24 cell line; 50μM, second assay): 1.6524 | OD490 Well 2 (T24 cell line; 50μM, second assay): 1.6895 | OD490 Well 3 (T24 cell line; 50μM, second assay): 1.7420 | OD490 Mean (T24 cell line; 100μM, first assay): 1.5388 | OD490 Well 1 (T24 cell line; 100μM, first assay): 1.4456 | OD490 Well 2 (T24 cell line; 100μM, first assay): 1.6062 | OD490 Well 3 (T24 cell line; 100μM, first assay): 1.5646 | OD490 Mean (T24 cell line; 100μM, second assay): 1.4712 | OD490 Well 1 (T24 cell line; 100μM, second assay): 1.4274 | OD490 Well 2 (T24 cell line; 100μM, second assay): 1.5020 | OD490 Well 3 (T24 cell line; 100μM, second assay): 1.4842

From PMC8037182, “Solvothermal Synthesis of Multiple Dihydropyrimidinones at a Time as Inhibitors of Eg5” (Molecules, 2021)
